In PubChem BioAssay (NCI):
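GI50 is the concentration that inhibits growth by half. TGI marks complete inhibition of growth.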

Columns and labels:
Experiment in all cases: NCI tumour cell line growth inhibition, 384-well format
SK-MEL-2 melanoma = tested on: SK-MEL-2 melanoma
MDA-MB-435 melanoma = tested on: MDA-MB-435 melanoma
SNB-19 CNS = tested on: SNB-19 CNS
SNB-75 CNS = tested on: SNB-75 CNS
SN12C renal = tested on: SN12C renal
OVCAR-5 ovarian = tested on: OVCAR-5 ovarian
SR leukemia = tested on: SR leukemia
K-562 leukemia = tested on: K-562 leukemia
NCI-H460 NSCLC = tested on: NCI-H460 NSCLC
A498 renal = tested on: A498 renal
UO-31 renal = tested on: UO-31 renal
M14 melanoma = tested on: M14 melanoma
MALME-3M melanoma = tested on: MALME-3M melanoma
HCT-15 colon = tested on: HCT-15 colon
ACHN renal = tested on: ACHN renal
OVCAR-8 ovarian = tested on: OVCAR-8 ovarian
OVCAR-3 ovarian = tested on: OVCAR-3 ovarian
SK-OV-3 ovarian = tested on: SK-OV-3 ovarian
COLO 205 colon = tested on: COLO 205 colon
MOLT-4 leukemia = tested on: MOLT-4 leukemia
IGROV1 ovarian = tested on: IGROV1 ovarian
U251 glioblastoma = tested on: U251 glioblastoma
SF-268 CNS = tested on: SF-268 CNS
SF-539 CNS = tested on: SF-539 CNS
HL-60(TB) leukemia = tested on: HL-60(TB) leukemia
SW-620 colon = tested on: SW-620 colon
T-47D breast = tested on: T-47D breast
SF-295 CNS = tested on: SF-295 CNS
NCI-H522 lung = tested on: NCI-H522 lung
DU-145 prostate = tested on: DU-145 prostate
CAKI-1 renal = tested on: CAKI-1 renal
HOP-62 NSCLC = tested on: HOP-62 NSCLC
MDA-MB-468 breast = tested on: MDA-MB-468 breast
PC-3 prostate = tested on: PC-3 prostate
RXF 393 renal = tested on: RXF 393 renal
MCF7 breast = tested on: MCF7 breast
HS 578T breast = tested on: HS 578T breast
HOP-92 NSCLC = tested on: HOP-92 NSCLC
HCT-116 colon = tested on: HCT-116 colon
NCI-H322M lung = tested on: NCI-H322M lung
BT-549 breast = tested on: BT-549 breast
UACC-257 melanoma = tested on: UACC-257 melanoma
NCI-H226 lung = tested on: NCI-H226 lung
HT29 colon = tested on: HT29 colon
A549 NSCLC = tested on: A549 NSCLC
UACC-62 melanoma = tested on: UACC-62 melanoma
NCI-H23 lung = tested on: NCI-H23 lung
OVCAR-4 ovarian = tested on: OVCAR-4 ovarian
786-0 renal = tested on: 786-0 renal
SK-MEL-5 melanoma = tested on: SK-MEL-5 melanoma
TK-10 renal = tested on: TK-10 renal
MDA-MB-231 breast = tested on: MDA-MB-231 breast
KM12 colon = tested on: KM12 colon
SK-MEL-28 melanoma = tested on: SK-MEL-28 melanoma
EKVX NSCLC = tested on: EKVX NSCLC
RPMI-8226 leukemia = tested on: RPMI-8226 leukemia
CCRF-CEM leukemia = tested on: CCRF-CEM leukemia
NCI/ADR-RES ovarian = tested on: NCI/ADR-RES ovarian
LOX IMVI melanoma = tested on: LOX IMVI melanoma
HCC-2998 colon = tested on: HCC-2998 colon

## N#Cc1ncc(N2C(=O)C3(CCC3)N(c3ccc(OC4CCNCC4)nc3)C2=S)cc1C(F)(F)F
SK-MEL-2 melanoma
  GI50: 5.98 µM
  TGI: 17.9 µM
MDA-MB-435 melanoma
  GI50: 13.4 µM
  TGI: 26.3 µM
SNB-19 CNS
  GI50: 19.1 µM
  TGI: 35.3 µM
SNB-75 CNS
  GI50: 14.5 µM
  TGI: 27.7 µM
SN12C renal
  GI50: 15.5 µM
  TGI: 28.9 µM
OVCAR-5 ovarian
  GI50: 13.8 µM
  TGI: 27 µM
SR leukemia
  GI50: 1.9 µM
  TGI: 3.91 µM
K-562 leukemia
  GI50: 4.27 µM
  TGI: 16.1 µM
NCI-H460 NSCLC
  GI50: 11.2 µM
  TGI: 23.4 µM
A498 renal
  GI50: 10.8 µM
  TGI: 22.7 µM
UO-31 renal
  GI50: 14.7 µM
  TGI: 27.9 µM
M14 melanoma
  GI50: 3 µM
  TGI: 8.44 µM
MALME-3M melanoma
  GI50: 2.68 µM
  TGI: 6.23 µM
HCT-15 colon
  GI50: 5.19 µM
  TGI: 16.6 µM
ACHN renal
  GI50: 15.3 µM
  TGI: 28.7 µM
OVCAR-8 ovarian
  GI50: 14.5 µM
  TGI: 27.7 µM
OVCAR-3 ovarian
  GI50: 14 µM
  TGI: 27.1 µM
SK-OV-3 ovarian
  GI50: 18.1 µM
  TGI: 32.2 µM
COLO 205 colon
  GI50: 15.1 µM
  TGI: 28.4 µM
MOLT-4 leukemia
  GI50: 10.1 µM
  TGI: 21.7 µM
IGROV1 ovarian
  GI50: 14.4 µM
  TGI: 27.7 µM
U251 glioblastoma
  GI50: 17.2 µM
  TGI: 31 µM
SF-268 CNS
  GI50: 13.4 µM
  TGI: 26.3 µM
SF-539 CNS
  GI50: 12.4 µM
  TGI: 24.9 µM
HL-60(TB) leukemia
  GI50: 3.75 µM
  TGI: 15.8 µM
SW-620 colon
  GI50: 14.5 µM
  TGI: 27.8 µM
T-47D breast
  GI50: 8.96 µM
  TGI: 21.1 µM
SF-295 CNS
  GI50: 18.6 µM
  TGI: 32.6 µM
NCI-H522 lung
  GI50: 17.5 µM
  TGI: 31.3 µM
DU-145 prostate
  GI50: 14.5 µM
  TGI: 27.9 µM
CAKI-1 renal
  GI50: 5.96 µM
  TGI: 18.3 µM
HOP-62 NSCLC
  GI50: 20.9 µM
  TGI: 35.3 µM
MDA-MB-468 breast
  GI50: 10.6 µM
  TGI: 22.4 µM
PC-3 prostate
  GI50: 14.4 µM
  TGI: 27.5 µM
RXF 393 renal
  GI50: 2.63 µM
  TGI: 7.32 µM
MCF7 breast
  GI50: 4.76 µM
  TGI: 16.6 µM
HS 578T breast
  GI50: 11.5 µM
  TGI: 23.6 µM
HOP-92 NSCLC
  GI50: 12.7 µM
  TGI: 25.4 µM
HCT-116 colon
  GI50: 8.22 µM
  TGI: 20.7 µM
NCI-H322M lung
  GI50: 17.9 µM
  TGI: 32.5 µM
BT-549 breast
  GI50: 11.1 µM
  TGI: 23.1 µM
UACC-257 melanoma
  GI50: 1.99 µM
  TGI: 3.79 µM
NCI-H226 lung
  GI50: 8.62 µM
  TGI: 20.7 µM
HT29 colon
  GI50: 2.88 µM
  TGI: 8.52 µM
A549 NSCLC
  GI50: 16.7 µM
  TGI: 30.5 µM
UACC-62 melanoma
  GI50: 2.03 µM
  TGI: 3.93 µM
NCI-H23 lung
  GI50: 11 µM
  TGI: 23 µM
OVCAR-4 ovarian
  GI50: 13.6 µM
  TGI: 26.5 µM
786-0 renal
  GI50: 12 µM
  TGI: 24.4 µM
SK-MEL-5 melanoma
  GI50: 11.8 µM
  TGI: 24.1 µM
TK-10 renal
  GI50: 7.64 µM
  TGI: 20.1 µM
MDA-MB-231 breast
  GI50: 16.1 µM
  TGI: 29.6 µM
KM12 colon
  GI50: 17.1 µM
  TGI: 30.9 µM
SK-MEL-28 melanoma
  GI50: 2.32 µM
  TGI: 5.21 µM
EKVX NSCLC
  GI50: 10.2 µM
  TGI: 22 µM

## O=C(Nc1ccc(-c2ccnc(Nc3ccc(N4CCOCC4)cc3)n2)cc1)C1CCCN1 (stereo unspecified)
MDA-MB-435 melanoma
  GI50: 7.37 µM
  TGI: 19.8 µM
SNB-19 CNS
  GI50: 11.4 µM
  TGI: 26.6 µM
SNB-75 CNS
  GI50: 4.17 µM
  TGI: 15.3 µM
SN12C renal
  GI50: 3.6 µM
  TGI: 17 µM
OVCAR-5 ovarian
  GI50: 12.4 µM
  TGI: 25.6 µM
K-562 leukemia
  GI50: 1.39 µM
  TGI: 10.9 µM
NCI-H460 NSCLC
  GI50: 1.65 µM
  TGI: 10.9 µM
A498 renal
  GI50: 6.48 µM
  TGI: 18.9 µM
UO-31 renal
  GI50: 3.96 µM
  TGI: 15.8 µM
M14 melanoma
  GI50: 5.63 µM
  TGI: 18.2 µM
MALME-3M melanoma
  GI50: 3.88 µM
  TGI: 15.4 µM
HCT-15 colon
  GI50: 1.25 µM
  TGI: 15 µM
ACHN renal
  GI50: 4.76 µM
  TGI: 17.6 µM
RPMI-8226 leukemia
  GI50: 1.29 µM
  TGI: 10.5 µM
OVCAR-8 ovarian
  GI50: 5.11 µM
  TGI: 18.1 µM
CCRF-CEM leukemia
  GI50: 1.79 µM
  TGI: 10.1 µM
OVCAR-3 ovarian
  GI50: 12.8 µM
  TGI: 26.2 µM
SK-OV-3 ovarian
  GI50: 3.29 µM
  TGI: 16.5 µM
COLO 205 colon
  GI50: 2.68 µM
  TGI: 17.4 µM
MOLT-4 leukemia
  GI50: 0.439 µM
  TGI: 1.56 µM
IGROV1 ovarian
  GI50: 3.52 µM
  TGI: 16.7 µM
NCI/ADR-RES ovarian
  GI50: 7.15 µM
  TGI: 21.9 µM
U251 glioblastoma
  GI50: 3.9 µM
  TGI: 17 µM
SF-268 CNS
  GI50: 0.204 µM
  TGI: 0.857 µM
SF-539 CNS
  GI50: 3.89 µM
  TGI: 15.2 µM
HL-60(TB) leukemia
  GI50: 1.56 µM
  TGI: 3.22 µM
SW-620 colon
  GI50: 5.25 µM
  TGI: 16 µM
T-47D breast
  GI50: 5.28 µM
  TGI: 15.8 µM
SF-295 CNS
  GI50: 7.63 µM
  TGI: 21.3 µM
NCI-H522 lung
  GI50: 2.88 µM
  TGI: 6.72 µM
DU-145 prostate
  GI50: 4.54 µM
  TGI: 15.4 µM
CAKI-1 renal
  GI50: 4.41 µM
  TGI: 15.6 µM
HOP-62 NSCLC
  GI50: 11.4 µM
  TGI: 24.7 µM
MDA-MB-468 breast
  GI50: 2.02 µM
  TGI: 8.28 µM
PC-3 prostate
  GI50: 5.86 µM
  TGI: 19.7 µM
LOX IMVI melanoma
  GI50: 1.74 µM
  TGI: 7.69 µM
RXF 393 renal
  GI50: 1.6 µM
  TGI: 12.1 µM
MCF7 breast
  GI50: 4.63 µM
  TGI: 17.6 µM
HS 578T breast
  GI50: 4.67 µM
  TGI: 16.7 µM
HOP-92 NSCLC
  GI50: 4.9 µM
  TGI: 20.2 µM
HCC-2998 colon
  GI50: 2.46 µM
  TGI: 8.76 µM
HCT-116 colon
  GI50: 1.5 µM
  TGI: 11.6 µM
NCI-H322M lung
  GI50: 10.4 µM
  TGI: 22.8 µM
BT-549 breast
  GI50: 3.78 µM
  TGI: 14.1 µM
UACC-257 melanoma
  GI50: 2.46 µM
  TGI: 5.49 µM
NCI-H226 lung
  GI50: 1.24 µM
  TGI: 10.6 µM
HT29 colon
  GI50: 2.22 µM
  TGI: 10.8 µM
A549 NSCLC
  GI50: 4.69 µM
  TGI: 17.8 µM
UACC-62 melanoma
  GI50: 3.1 µM
  TGI: 16.8 µM
NCI-H23 lung
  GI50: 13.7 µM
  TGI: 27.1 µM
OVCAR-4 ovarian
  GI50: 14.5 µM
  TGI: 28.7 µM
786-0 renal
  GI50: 2.82 µM
  TGI: 11.7 µM
SK-MEL-5 melanoma
  GI50: 0.687 µM
  TGI: 14.2 µM
TK-10 renal
  GI50: 2.78 µM
  TGI: 19.2 µM
MDA-MB-231 breast
  GI50: 0.87 µM
  TGI: 17.3 µM
KM12 colon
  GI50: 8 µM
  TGI: 21.1 µM
SK-MEL-28 melanoma
  GI50: 7.45 µM
  TGI: 20.5 µM
EKVX NSCLC
  GI50: 11.9 µM
  TGI: 24.9 µM
